The text below walks through data of patent US20130225534A1, “METHODS FOR TREATING AN INORGANIC SLURRY” (Rhodia Operations, priority 2003, published 2013).

This assay relates to bacterial contamination of calcium carbonate-based slurry. The following applies: THPS solution added to calcium carbonate-based slurry; in 2 hours.

Turning to “tetrakis(hydroxymethyl)phosphonium sulphate [THPS]”, the “reduction in bacterial count” value is reported as 10^4.
